Some test systems named below: EKVX NSCLC; SN12C renal; HT29 colon; NCI-H522 lung; SK-MEL-28 melanoma; ACHN renal; HL-60(TB) leukemia; K-562 leukemia; SR leukemia; OVCAR-5 ovarian.
Common to all, as to assay: NCI tumour cell line growth inhibition, 48 h

Several values for one entry are separate records, joined by “and”; a condition that tells them apart may be missing. Equal values may be shown once.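 48-hour exposure; five concentrations; linearly interpolated endpoints. GI50 marks 50% less growth. TGI is the concentration that stops growth completely.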 Bounds are passed on as bounds.

For `O=C(O)CCC1CCC(c2cc(F)ccc2F)(S(=O)(=O)c2ccc(Cl)cc2)CC1` (configuration not stated), the GI50 in the experiment on EKVX NSCLC was 15.1 µM and > 68.5 µM; in the experiment with SN12C renal, 49 µM and > 100 µM; in the experiment with HT29 colon it was 30.3 µM and > 100 µM; with NCI-H522 lung, 20.7 µM and > 100 µM; with SK-MEL-28 melanoma it was 25.5 µM and > 100 µM; in the experiment with ACHN renal, 56.7 µM and > 100 µM. In addition, the GI50 with HL-60(TB) leukemia is 31.3 µM and > 81 µM; in the experiment with K-562 leukemia, 34.6 µM and 34.7 µM; with SR leukemia, 25.5 µM and > 47.3 µM; with OVCAR-5 ovarian, 92.2 µM and > 100 µM. Moreover, the TGI is over 100 µM in the experiment on EKVX NSCLC; over 100 µM in the experiment with SN12C renal; over 100 µM with HT29 colon; 79.7 µM and > 100 µM in the experiment on NCI-H522 lung; over 100 µM in the experiment on SK-MEL-28 melanoma; over 100 µM with ACHN renal. Further, the TGI in the experiment with HL-60(TB) leukemia, in the experiment with K-562 leukemia, with SR leukemia and with OVCAR-5 ovarian was over 100 µM in each case.
Take `COc1ccc2c(c1)[n+]([O-])c(-c1nc3ccccc3s1)c(N)[n+]2[O-]`: the TGI with EKVX NSCLC, in the experiment with SN12C renal, in the experiment with HT29 colon, in the experiment on NCI-H522 lung, in the experiment with SK-MEL-28 melanoma and in the experiment on ACHN renal was over 100 µM each time. Moreover, the TGI with HL-60(TB) leukemia, with K-562 leukemia, in the experiment on SR leukemia and in the experiment on OVCAR-5 ovarian was over 100 µM in each case.
Consider `O=C(Nc1ccc(Br)c(Cl)c1)c1cc(F)ccc1O`, for which the GI50 with EKVX NSCLC was 0.77 µM; in the experiment on SN12C renal, 0.533 µM; in the experiment with HT29 colon, 1.71 µM; in the experiment with NCI-H522 lung it was 0.238 µM; in the experiment with SK-MEL-28 melanoma, 0.421 µM; in the experiment on ACHN renal it was 0.61 µM. In addition, the GI50 in the experiment with HL-60(TB) leukemia was 0.97 µM; in the experiment on K-562 leukemia, 0.293 µM; with SR leukemia, 0.547 µM; in the experiment on OVCAR-5 ovarian, 1.71 µM. Besides, the TGI in the experiment with EKVX NSCLC is 10 µM; with SN12C renal it was 8.91 µM; in the experiment with HT29 colon it was 8.35 µM; in the experiment on NCI-H522 lung, 2.93 µM; in the experiment on SK-MEL-28 melanoma it was 3.87 µM; in the experiment on ACHN renal it was over 14.4 µM. Further, the TGI with HL-60(TB) leukemia is 2.83 µM; in the experiment with K-562 leukemia, over 50 µM; with OVCAR-5 ovarian, over 50 µM.
`O=C1C=CC2(C=C1)CCN=c1c(O)c3c(c(O)c12)=NC=N3`: the GI50 in the experiment with EKVX NSCLC was 17 µM and > 100 µM; in the experiment on SN12C renal, 14.5 µM and > 100 µM; in the experiment on HT29 colon, 20.3 µM and > 100 µM; in the experiment with SK-MEL-28 melanoma, 15.6 µM and > 100 µM; with ACHN renal, 12.6 µM and > 100 µM; in the experiment on HL-60(TB) leukemia, 8.02 µM and 59.9 µM. Besides, the GI50 in the experiment on SR leukemia is 10.6 µM and 93 µM; in the experiment with OVCAR-5 ovarian it was 22.4 µM and > 100 µM. Also, the TGI in the experiment with EKVX NSCLC is 31.7 µM and > 100 µM; in the experiment on SN12C renal, 29.4 µM and > 100 µM; with HT29 colon, 47.3 µM and > 100 µM; in the experiment on NCI-H522 lung it was 16.6 µM and > 100 µM; in the experiment on SK-MEL-28 melanoma, 29.4 µM and > 100 µM; with ACHN renal, 25.7 µM and > 100 µM. Further, the TGI in the experiment with HL-60(TB) leukemia was over 100 µM; in the experiment with K-562 leukemia it was 42.6 µM and > 100 µM; in the experiment with SR leukemia, over 100 µM; with OVCAR-5 ovarian, 37.4 µM and > 100 µM.
For `COC(=O)C#Cc1ccc([N+](=O)[O-])cc1`, the TGI in the experiment with EKVX NSCLC worked out at 3.48 µM; in the experiment on SN12C renal it was 3.22 µM; with HT29 colon, 3.23 µM; in the experiment with NCI-H522 lung, 3.47 µM; with SK-MEL-28 melanoma it was 4.13 µM; in the experiment on ACHN renal, 2.9 µM. Further, the TGI came to 4.32 µM in the experiment on HL-60(TB) leukemia, 12.9 µM in the experiment with K-562 leukemia, 1.07 µM in the experiment on SR leukemia and 4.34 µM in the experiment on OVCAR-5 ovarian.
On to `COc1cccc2c1c1nc3cc(C)c(C)cc3nc1n2CCN(C)C`, for which the GI50 in the experiment on EKVX NSCLC is 2.29 µM; in the experiment on SN12C renal, 1.66 µM; in the experiment with HT29 colon, 1.68 µM; in the experiment on NCI-H522 lung it was 2.39 µM; in the experiment with SK-MEL-28 melanoma, 1.94 µM; with ACHN renal, 0.433 µM. Besides, the GI50 is 2.09 µM in the experiment on HL-60(TB) leukemia, 0.982 µM with K-562 leukemia, 0.452 µM with SR leukemia and 2.4 µM with OVCAR-5 ovarian. Moreover, the TGI with EKVX NSCLC came to 7.33 µM; in the experiment with SN12C renal it was 11.2 µM; in the experiment on HT29 colon, 10.7 µM; with NCI-H522 lung it was 8.65 µM; in the experiment with SK-MEL-28 melanoma it was 4.23 µM; in the experiment on ACHN renal it was 10.3 µM. In addition, the TGI worked out at 6.57 µM in the experiment on HL-60(TB) leukemia, 9.12 µM with K-562 leukemia, 8.7 µM with SR leukemia and 9.48 µM in the experiment with OVCAR-5 ovarian.
In the case of `Cc1ccc(C(=O)NC2CCCCC2)cc1-c1ccc(C(=O)NCC2CC2)cc1`, the GI50 was over 19.4 µM in the experiment on EKVX NSCLC; over 25 µM in the experiment with SN12C renal; over 25 µM with HT29 colon; 13.5 µM in the experiment on NCI-H522 lung; over 25 µM with SK-MEL-28 melanoma; over 25 µM in the experiment with ACHN renal. For the same compound, the GI50 is over 25 µM in the experiment on HL-60(TB) leukemia, 19.4 µM in the experiment on K-562 leukemia, over 25 µM with SR leukemia and over 25 µM in the experiment on OVCAR-5 ovarian. The TGI in the experiment on EKVX NSCLC, in the experiment with SN12C renal, in the experiment with HT29 colon, with NCI-H522 lung, in the experiment with SK-MEL-28 melanoma and in the experiment with ACHN renal was over 25 µM in each case. Also, the TGI in the experiment with HL-60(TB) leukemia, in the experiment on K-562 leukemia, in the experiment on SR leukemia and with OVCAR-5 ovarian was over 25 µM throughout.
As to `CO[C@H](C(=O)N[C@@H](CCCCNC(=O)OCc1ccccc1)C(=O)OC(C)(C)C)[C@@H]1Cc2cc3cc(OC4CC(OC5CC(O)C(O)C(C)O5)C(O)C(C)O4)c(C)c(O)c3c(O)c2C(=O)[C@H]1OC1CC(OC2CC(OC3CC(C)(O)C(O)C(C)O3)C(O)C(C)O2)C(O)C(C)O1` (some centres not stated), the GI50 in the experiment on EKVX NSCLC is 1.17 µM; in the experiment with SN12C renal, 0.463 µM; in the experiment on HT29 colon it was 0.508 µM; with NCI-H522 lung, 0.687 µM; with SK-MEL-28 melanoma, 0.468 µM; in the experiment with ACHN renal, 0.67 µM. Moreover, the GI50 with HL-60(TB) leukemia was 0.971 µM; with K-562 leukemia it was 0.635 µM; in the experiment with SR leukemia, 0.319 µM; in the experiment on OVCAR-5 ovarian, 0.976 µM. Also, the TGI with EKVX NSCLC is 3.1 µM; in the experiment with SN12C renal, 3.88 µM; in the experiment with HT29 colon, over 10 µM; in the experiment on NCI-H522 lung it was 3.15 µM; in the experiment on SK-MEL-28 melanoma, 1.87 µM; with ACHN renal it was 4.45 µM. For the same compound, the TGI with HL-60(TB) leukemia was 5.92 µM; in the experiment with K-562 leukemia, over 10 µM; with SR leukemia, over 10 µM; with OVCAR-5 ovarian it was 2.82 µM.

The values are drawn from PubChem BioAssay (NCI).
